Reference: DBAASP
Converted amounts (≈) assume the structure as drawn. Each block holds one compound with its values, some of them ahead of it.

Legend:
Test in all cases: ≥ marks a high value that may be exact or a test limit, other limits are often not marked, values filed in µg/mL are converted to µM
[1] = test system: Bacillus subtilis KCTC 1021
[2] = test system: Candida albicans
[3] = test system: Escherichia coli
[4] = test system: Klebsiella pneumoniae ATCC 10031
[5] = test system: Micrococcus luteus ATCC 4698
[6] = test system: Proteus mirabilis ATCC 25933
[7] = test system: Pseudomonas aeruginosa ATCC 9027
[8] = test system: Pseudomonas putida
[9] = test system: Saccharomyces cerevisiae
[10] = test system: Salmonella enterica subsp. enterica serovar Typhimurium ATCC 14028
[11] = test system: Serratia marcescens
[12] = test system: Shigella dysenteriae ATCC 9752
[13] = test system: Staphylococcus epidermidis ATCC 12228
[14] = test system: Bacillus megaterium Bm11
[15] = test system: Enterobacter cloacae ATCC 49141
[16] = test system: Enterococcus faecalis ATCC 19433
[17] = test system: Escherichia coli ATCC 25922
[18] = test system: Klebsiella aerogenes ATCC 35029
[19] = test system: Pseudomonas aeruginosa ATCC 27853
[20] = test system: Staphylococcus aureus ATCC 6538P
[21] = test system: Streptococcus pyogenes ATCC 49399
[22] = test system: Candida albicans NCTC 1467
[23] = test system: Enterococcus faecalis NCTC 12697
[24] = test system: Escherichia coli NCTC 10418
[25] = test system: Staphylococcus aureus ATCC 12493
[26] = test system: Staphylococcus aureus NCTC 10788
[27] = test system: Escherichia coli ATCC 35218
[28] = test system: Klebsiella oxytoca ATCC 13182
[29] = test system: Klebsiella pneumoniae ATCC 700603
[30] = test system: Klebsiella pneumoniae KpC+001825971
[31] = test system: Serratia marcescens ATCC 13880
[32] = test system: Staphylococcus aureus ATCC 80958

MIC [1]: 3.89 µM (≈ 9.99 µg/mL) | MIC [2]: 19.4 µM (≈ 50 µg/mL) | MIC [3]: 19.4 µM (≈ 50 µg/mL) | MIC [4]: 19.4 µM (≈ 50 µg/mL) | MIC [5]: 0.972 µM (≈ 2.5 µg/mL) | MIC [6]: ≥ 77.8 µM | MIC [7]: 38.9 µM (≈ 99.9 µg/mL) | MIC [8]: 19.4 µM (≈ 50 µg/mL) | MIC [9]: 19.4 µM (≈ 50 µg/mL) | MIC [10]: 77.8 µM (≈ 200 µg/mL) | MIC [11]: ≥ 77.8 µM | MIC [12]: 19.4 µM (≈ 50 µg/mL) | MIC [13]: 3.89 µM (≈ 9.99 µg/mL)
Structure (SMILES): CC[C@H](C)[C@@H]1NC(=O)[C@H](C)NC(=O)[C@@H](NC(=O)[C@H](Cc2ccccc2)NC(=O)[C@@H](NC(=O)[C@H](CO)NC(=O)[C@@H]2CCCN2C(=O)[C@H](CC(C)C)NC(=O)[C@@H](NC(=O)[C@H](CCCCN)NC(=O)[C@H](CO)NC(=O)[C@H](C)NC(=O)[C@@H](NC(=O)[C@H](CCCCN)NC(=O)[C@H](Cc2ccccc2)NC(=O)[C@H](CC(C)C)NC(=O)[C@H](C)NC(=O)CNC(=O)[C@H](CC(C)C)NC(=O)[C@@H](N)Cc2ccccc2)C(C)C)C(C)C)C(C)C)CSSC[C@@H](C(=O)O)NC(=O)[C@H](CCCCN)NC(=O)[C@H](CCCCN)NC(=O)[C@H]([C@@H](C)O)NC1=O [FLGALFKVASKVLPSVFCAITKKC]

MIC [14]: 2.5 µM (≈ 3.25 µg/mL) | MIC [15]: ≥ 80 µM | MIC [16]: ≥ 80 µM | MIC [17]: 3.54 µM (≈ 4.59 µg/mL) | MIC [18]: ≥ 80 µM | MIC [19]: 20 µM (≈ 26 µg/mL) | MIC [20]: ≥ 80 µM | MIC [21]: 2.5 µM (≈ 3.25 µg/mL)
Structure (SMILES): CC[C@H](C)[C@H](NC(=O)[C@H](CCCN=C(N)N)NC(=O)[C@@H](NC(=O)[C@H](CCCN=C(N)N)NC(=O)[C@H](Cc1c[nH]c2ccccc12)NC(=O)[C@H](CCCN=C(N)N)NC(=O)[C@H](Cc1ccccc1)NC(=O)[C@H](CCCN=C(N)N)NC(=O)[C@@H]1CCCN1)[C@@H](C)CC)C(N)=O [PRFRWRIRI]

MIC [22]: ≥ 512 µM | MIC [23]: ≥ 512 µM | MIC [24]: ≥ 512 µM | MIC [19]: > 512 µM | MIC [25]: ≥ 512 µM | MIC [26]: ≥ 512 µM
Structure (SMILES): CC[C@H](C)[C@H](NC(=O)CN)C(=O)N[C@@H](CCSC)C(=O)N[C@@H](CC(=O)O)C(=O)N[C@H](C(=O)N[C@H](C(=O)N[C@@H](CCCCN)C(=O)N[C@@H](CC(N)=O)C(=O)N[C@@H](C)C(=O)N[C@@H](C)C(=O)N[C@@H](CCCCN)C(=O)N[C@@H](CC(N)=O)C(=O)N[C@@H](CC(C)C)C(=O)N[C@@H](C)C(=O)NCC(=O)N[C@@H](CCC(N)=O)C(=O)N[C@@H](CC(C)C)C(=O)N[C@@H](CC(C)C)C(=O)N[C@@H](CC(=O)O)C(=O)N[C@@H](CCCCN)C(=O)N[C@@H](CC(C)C)C(=O)N[C@@H](CCCCN)C(=O)N[C@H]1CSSC[C@@H](C(=O)O)NC(=O)[C@H](C)NC(=O)[C@H]([C@@H](C)O)NC(=O)[C@H]([C@@H](C)CC)NC(=O)[C@H](CO)NC1=O)C(C)C)[C@@H](C)O [GIMDTVKNAAKNLAGQLLDKLKCSITAC]

MIC [27]: 7.35 µM (≈ 18.4 µg/mL) | MIC [28]: 1.84 µM (≈ 4.6 µg/mL) | MIC [29]: 3.67 µM (≈ 9.18 µg/mL) | MIC [30]: 25.6 µM (≈ 64.1 µg/mL) | MIC [31]: 1.84 µM (≈ 4.6 µg/mL) | MIC [32]: 7.35 µM (≈ 18.4 µg/mL)
Structure (SMILES): CC(C)C[C@H](NC(=O)[C@H](Cc1ccc(O)cc1)NC(=O)[C@H](C)NC(=O)[C@H](CCCN=C(N)N)NC(=O)[C@H](Cc1ccccc1)NC(=O)[C@H](Cc1ccc(O)cc1)NC(=O)[C@H](CCCCN)NC(=O)[C@@H](NC(=O)[C@H](Cc1c[nH]c2ccccc12)NC(=O)[C@H](CCCN=C(N)N)NC(=O)[C@H](Cc1cnc[nH]1)NC(=O)[C@H](CC(C)C)NC(=O)[C@H](Cc1ccccc1)NC(=O)[C@H](CCCN=C(N)N)NC(=O)[C@@H](NC(=O)[C@H](Cc1ccc(O)cc1)NC(=O)[C@H](CCCCN)NC(=O)[C@@H](N)CCCN=C(N)N)C(C)C)C(C)C)C(=O)O [RKYVRFLHRWVKYFRAYL]
